{
  "source": "patent US9873918B2",
  "about": "“Treatment of acute myeloid leukemia and myelodysplastic syndromes” (Albert Einstein College of Medicine, Inc., priority 2011, dated 2018)",
  "assay_in_all_cases": "Colony formation (clonogenic) assay in methylcellulose after lentiviral IL1RAP shRNA knockdown",
  "assay_type_in_all_cases": "cell-based, human",
  "conditions_in_all_cases": "p<0.05",
  "key": {"HEL cells": {"test_system": "HEL cells", "description": "(§1) FIG. 18A-18B. IL1RAP knockdown decreases clonogenic potential and leads to increased cell death of AML cells. A) Colony formation assay in semisolid methylcellulose media of AML cells (THP-1, OCI-AML3, HEL, HL-60) infected with control and two IL1RAP-directed shRNAs. Mean and standard deviations are shown. Asterisks indicate statistical significance (p<0.05). B) Analysis of apoptosis/necrosis with Annexin V/DAPI in THP-1 cells infected with control and IL1RAP shRNAs. […] Statistical significance is indicated (* indicate p<0.05).\n(§2) For knockdown studies, shRNA template oligonucleotides (Luciferase Control shRNA: 5′-[…]-3′ (SEQ ID NO:3); IL-1RAP shRNA 1: 5′-[…]-3′ (SEQ ID NO:4); IL-1RAP shRNA 2: 5′-[…]-3′) (SEQ ID NO:5) were cloned into the pSIH1-H1-copGFP shRNA vector system (System Biosciences, Mountain View, Calif.). For production of lentiviral particles, lentiviral constructs with packaging vectors were transfected into 293T producer cells using Fugene HD transfection reagent (Roche). Supernatant was harvested after 48 and 72 hours, and concentrated by ultracentrifugation. For knockdown studies, HL60, HEL, OCI-AML3, MOLM-13, THP1 and UT-7 cell lines were transfected with the short-hairpin-containing lentivirus (MOI=10), incubated for 48 or 72 hours. After culture with fresh medium, GFP-positive cells were sorted using a FACS Aria II sorter (BD Biosciences) and used for experiments. Level of knockdown of Il-1RAP was determined by flow cytometry.\n(§3) THP1 cells were transduced with these lentiviral shRNAs or with a non-silencing control, and subjected sorted GFP-positive, Annexin V-negative, DAPI-negative cells to clonogenic assays. Knockdown of IL1RAP led to a significant (p<0.05) 94% and 98% inhibition of leukemic colony formation of THP1 cells in comparison to the non-silencing control (FIG. 18A)."}, "HL-60 cells": {"test_system": "HL-60 cells", "description": "as §1, §2, §3"}, "OCI-AML3 cells": {"test_system": "OCI-AML3 cells", "description": "as §1, §2, §3"}},
  "data": [
    {"substance": "shRNA#2: IL1RAP-directed lentiviral shRNA, template 5′-cgggcattaattgatttcctactatattc-3′ (SEQ ID NO:5), in pSIH1-H1-copGFP vector (DNA CGGGCATTAATTGATTTCCTACTATATTC)", "values": [
      {"measurement": "reduced clonogenicity", "setting": "HEL cells", "result": 81, "unit": "%"},
      {"measurement": "reduced clonogenicity", "setting": "HL-60 cells", "result": 38.5, "unit": "%"},
      {"measurement": "reduced clonogenicity", "setting": "OCI-AML3 cells", "result": 62, "unit": "%"}
    ]},
    {"substance": "shRNA#1: IL1RAP-directed lentiviral shRNA, template 5′-tggccttactctgatctggtattggacta-3′ (SEQ ID NO:4), in pSIH1-H1-copGFP vector (DNA TGGCCTTACTCTGATCTGGTATTGGACTA)", "values": [
      {"measurement": "reduced clonogenicity", "setting": "HEL cells", "result": 69, "unit": "%"},
      {"measurement": "reduced clonogenicity", "setting": "HL-60 cells", "result": 45, "unit": "%"},
      {"measurement": "reduced clonogenicity", "setting": "OCI-AML3 cells", "result": 51.5, "unit": "%"}
    ]}
  ]
}
